From patent US9809595B2 (priority 2013, dated 2017)

Tests used:
secretion of FlgD = assay: Secretion assay (Western blot of culture supernatant with anti-FlgD antibody); type: cell-based, Salmonella typhimurium; settings: supernatant of 8.0 hr culture from the growth assay, strain SJW1103; FIG. 7a and 7b
Experimental: Then, effects of the selected compounds on different type III secretion phenotypes were assessed. 1 ml of the cell suspensions of 8.0 hr culture in the above-growth assay were centrifuged at 13,200 rpm (16,100 g) for 10 min. The supernatant fractions (0.9 ml) were fractionated into new tubes and mixed with 100% trichloroacetic acid thoroughly. The fractions were kept on ice at least 1 h to precipitate secreted proteins. After centrifugation at 15,400 rpm for 30 min, the precipitated supernatant fractions were resuspended in 0.02 ml of 1 M Tris base and stored −30° C. until use. Samples for SDS-PAGE analysis were prepared by adding 5× SDS loading Buffer and then heat at 95° C. for 5 min. SDS-PAGE analyses were carried out at the condition of 200V for 30 min using premade gels purchased from Bio-rad. Electro-blotting onto PVDF membrane was performed with iBlot from Invitrogen and the membranes were developed with Chromogenic Immuno-detection Kit (Invitrogen) using a custom antibody raised against FlgD, a flagellar protein (from Prof. Keiichi Namba, Osaka University). Images were digitized as gray scale color with ChemDoc (Bio-rad). Kaleidoscope (Bio-rad) was used as a molecular marker.

[1] = tested on: Salmonella typhimurium strain SJW1103; assay: Bacterial growth assay; type: cell-based; settings: 5 μl of 100 mM compound in DMSO added to 10 ml LB, 303 K, OD600 read at 2, 4, 6, 8 and 10 hr; FIG. 6
Experimental: The effect of the candidate compounds on the viability of bacteria cultures were first tested before analyzing their effect on the flexibility of FlhBC. 80 compounds out of the 237 compounds were purchased from KISHIDA CHEMICAL Co., Ltd according to the ranking. The Salmonella typhimurium strain SJW1103 was grown in LB medium at 303 K. Overnight cultures were diluted in Fresh LB medium to an optical density at 600 nm (OD600) of 0.1. Each of 5 μl of 100 mM candidate compounds solubilized in DMSO or DMSO alone as a control was added into 10 ml LB medium in 50-ml volume polypropylene conical tubes. For obtaining growth curves of the cell under the presence of each chemical, 0.2 ml of the culture volume were removed at every 2 h (2, 4, 6, 8 and 10 hr) and diluted with 1 ml of LB to measure absorbance at OD600.

Row | SMILES | inhibition of FlgD secretion (type III secretion system) (secretion of FlgD) | effect on bacterial growth (growth curve, OD600) [1]
1 | Cn1c(=O)c2c(ncn2CC(O)CO)n(C)c1=O (stereo not shown) [compound 47, 7-(2,3-dihydroxypropyl)-1,3-dimethyl-3,7-dihydro-1H-purine-2,6-dione] | inhibit the secretion of FlgD | slight growth delay
2 | COc1cc(Cc2cnc(N)nc2N)cc(OC)c1OC [compound 64, 5-(3,4,5-Trimethoxybenzyl)pyrimidine-2,4-diamine] | inhibit the secretion of FlgD | slight growth delay
